Assay results taken from patent publication US8956445B2, “High stability diionic liquid salts” (Sigma-Aldrich Co., priority 2004, dated 2015).

Key:
[1] = Solvation interaction parameters by inverse gas-liquid chromatography (Abraham solvation model); format: physicochemical
Method: The preparation of the capillary columns for inverse gas-liquid chromatographic analysis was performed using a previously described procedure.^31 All capillary columns had efficiencies between 2100 to 2500 plates/meter. Characterization of the capillary columns and probe molecule descriptions are listed in supplemental information. Multiple linear regression analysis (MLRA) and statistical calculations were performed using the program Analyse-it (Microsoft, USA).
We have previously reported that the Abraham solvation model, a linear free energy approach that utilizes inverse gas-liquid chromatography to describe the solvation properties of a liquid, can be used to characterize room temperature ionic liquids.^31 Described by equation 1, the model provides the so-called “interaction parameters” (r, s, a, b, l) by using multiple linear regression analysis to fit the retention factor (k, determined chromatographically) to the solute descriptors (R2, π2^H, α2^H, β2^H, log L^16) for a wide variety of probe solute molecules. […] The solvation properties of four dicationic ionic liquids (see Table 4) were evaluated and the interaction parameters compared to those obtained for their traditional monocationic analogues 1-butyl-3-methylimidazolium and 1-butyl-1-methylpyrrolidinium ionic liquids.
Previously we characterized a large number of room temperature ionic liquids in terms of multiple solvation interactions using the solvation parameter model, shown in equation 3.^44 log k=c+rR2+sπ2^H+aα2^H+bβ2^H+l log L^16 [3] This approach utilizes inverse gas-liquid chromatography and allows the use of a large number of probe molecules to deconvolute solute retention in terms of the type and magnitude of individual solvation interactions. The solute descriptors (R2, π2^H, α2^H, β2^H, log L^16) from Equation 3 are obtained from the literature for many probe molecules containing a variety of functional groups.^45 The retention factor is determined chromatographically. The solute descriptors and retention factors are subjected to multiple linear regression analysis to obtain the interaction parameter coefficients (r, s, a, b, l), which ultimately characterize the stationary phase: r is the ability of the diionic liquid containing-stationary phase to interact with π and n electrons of the solute, s is a measure of the dipolarity/polarizability of the diionic liquid containing-stationary phase, a defines the diionic liquid containing-stationary phase hydrogen bond basicity, b is a measure of the hydrogen bond acidity, and/refers to the ability of the diionic liquid containing-stationary phase to separate adjacent members of a homologous series.^46
Test solutes used to determine interaction parameters and solvation thermodynamics were dissolved in dichloromethane. A Hewlett-Packard model 5890 gas chromatograph and a Hewlett-Packard 6890 series integrator were used for all separations. Split injection and flame ionization detection were utilized with injection and detection temperatures of 250° C. Helium was used as the carrier gas with a column inlet pressure of 3.1 psi and flow rate of 1.0 mL/min. Methane was used to determine the dead volume of the column. Multiple linear regression analysis and statistical calculations were performed using the program Analyze-it (Microsoft).

Row | Compound | Miscibility with Heptane | Miscibility with Water | also measured
1 | C[n+]1ccn(CCCCn2cc[n+](C)c2)c1.O=S(=O)([N-]S(=O)(=O)C(F)(F)F)C(F)(F)F.O=S(=O)([N-]S(=O)(=O)C(F)(F)F)C(F)(F)F [C4(mim)2-NTf2] |  |  | a (hydrogen bond basicity) ([1]; 40° C.): 2.11; b (hydrogen bond acidity) ([1]; 40° C.): 0.50; c (interaction parameter table, constant) ([1]; 40° C.): −2.94; l (dispersion forces) ([1]; 40° C.): 0.56; r (interaction via nonbonding and π-electrons) ([1]; 40° C.): 0.25; s (dipolarity/polarizability) ([1]; 40° C.): 2.01; a (hydrogen bond basicity) ([1]; 70° C.): 1.77; b (hydrogen bond acidity) ([1]; 70° C.): 0.45; c (interaction parameter table, constant) ([1]; 70° C.): −2.91; l (dispersion forces) ([1]; 70° C.): 0.44; r (interaction via nonbonding and π-electrons) ([1]; 70° C.): 0.22; s (dipolarity/polarizability) ([1]; 70° C.): 1.78; a (hydrogen bond basicity) ([1]; 100° C.): 1.57; b (hydrogen bond acidity) ([1]; 100° C.): 0.33; c (interaction parameter table, constant) ([1]; 100° C.): −3.06; l (dispersion forces) ([1]; 100° C.): 0.37; r (interaction via nonbonding and π-electrons) ([1]; 100° C.): 0.20; s (dipolarity/polarizability) ([1]; 100° C.): 1.69
2 | C[n+]1ccn(CCCCCCn2cc[n+](C)c2)c1.F[P-](F)(F)(F)(F)F.F[P-](F)(F)(F)(F)F [C6(mim)2-PF6, 1,6-di(3-methylimidazolium)hexane di-hexafluorophosphate] | Immiscible | Immiscible | 
3 | Cc1n(C)cc[n+]1CCC[n+]1ccn(C)c1C.F[P-](F)(F)(F)(F)F.F[P-](F)(F)(F)(F)F [C3(m2im)2-PF6, 1,3-di(2,3-dimethylimidazolium)propane di-hexafluorophosphate] | Immiscible | Immiscible | 
4 | Cc1n(C)cc[n+]1CCCCCCCCC[n+]1ccn(C)c1C.F[P-](F)(F)(F)(F)F.F[P-](F)(F)(F)(F)F [C9(m2im)2-PF6, 1,9-di(2,3-dimethylimidazolium)nonane di-hexafluorophosphate] | Immiscible | Immiscible | 
5 | C[n+]1ccn(CCCCCCn2cc[n+](C)c2)c1.F[B-](F)(F)F.F[B-](F)(F)F [C6(mim)2-BF4, 1,6-di(3-methylimidazolium)hexane di-tetrafluoroborate] | Immiscible | Miscible | 
6 | C[N+]1(CCC[N+]2(C)CCCC2)CCCC1.O=S(=O)([N-]S(=O)(=O)C(F)(F)F)C(F)(F)F.O=S(=O)([N-]S(=O)(=O)C(F)(F)F)C(F)(F)F [C3(mpy)2-NTf2, 1,3-di(methylpyrrolidinium)propane di-bis[(trifluoromethyl)sulfonyl]imidate] | Immiscible | Immiscible | 
7 | Cn1cc[n+](CCCCCCCCC[n+]2ccn(C)c2)c1.F[P-](F)(F)(F)(F)F.F[P-](F)(F)(F)(F)F [C9(mim)2-PF6, 1,9-di(3-methylimidazolium)nonane di-hexafluorophosphate] | Immiscible | Immiscible | 
8 | Cc1n(C)cc[n+]1CCC[n+]1ccn(C)c1C.[Br-].[Br-] [C3(m2im)2-Br, 1,3-di(2,3-dimethylimidaolium)propane di-bromide] | Immiscible | Miscible | 
9 | Cc1n(C)cc[n+]1CCCCCCCCC[n+]1ccn(C)c1C.[Br-].[Br-] [C9(m2im)2-Br, 1,9-di(2,3-dimethylimidazolium)nonane di-bromide] | Immiscible | Miscible | 
10 | C[N+]1(CCCCCCCCC[N+]2(C)CCCC2)CCCC1.F[P-](F)(F)(F)(F)F.F[P-](F)(F)(F)(F)F [C9(mpy)2-PF6, 1,9-di(methylpyrrolidinium)nonane di-hexafluorophosphate] | Immiscible | Immiscible | 
11 | CCCC[N+]1(CCCCCCCCC[N+]2(CCCC)CCCC2)CCCC1.F[P-](F)(F)(F)(F)F.F[P-](F)(F)(F)(F)F [C9(bpy)2-PF6, 1,9-di(butylpyrrolidinium)nonane di-hexafluorophosphate] | Immiscible | Immiscible | 
